Activity calls are given as the source filed them. The rule behind the calls is not given here.
What was measured:
[1] = tested on: Acanthocheilonema viteae; assay: Antifilarial activity against Acanthocheilonema viteae infected Mastomys coucha assessed as sterilization of female worms at 50 mg/kg, ip for 5 days relative to control; assay type: functional, organism-based; parameters: dose 50 mg/kg
[2] = tested on: Acanthocheilonema viteae; assay: Antifilarial activity against Acanthocheilonema viteae infected Mastomys coucha assessed as macrofilariacidal activity at 50 mg/kg, ip for 5 days relative to control; assay type: functional
[3] = tested on: Acanthocheilonema viteae; assay: Antifilarial activity against Acanthocheilonema viteae infected Mastomys coucha assessed as microfilariacidal activity at 50 mg/kg, ip for 5 days relative to control; assay type: functional
[4] = tested on: Acanthocheilonema viteae; assay: Antifilarial activity against Acanthocheilonema viteae infected Mastomys coucha assessed as macrofilariacidal activity at 200 mg/kg, ip for 5 days relative to control; assay type: functional; conditions: route intraperitoneal
[5] = tested on: Acanthocheilonema viteae; assay: Antifilarial activity against Acanthocheilonema viteae infected Mastomys coucha assessed as sterilization of female worms at 100 mg/kg, po for 5 days relative to control; assay type: functional

Row | SMILES | Activity [1] | Activity [2] | Activity [3] | Activity [4] [%] | Activity ([2]; route intraperitoneal) [%] | Activity [5] [%] | Activity ([3]; route intraperitoneal) [%]
1 | CC(=O)OC1CCCCC1N1CCOCC1 (stereo not given) | inactive | inactive | inactive | – | – | – | –
2 | CC(=O)OC(C)N1CCCCC1C (stereo not given) | inactive | inactive | inactive | – | – | – | –
3 | CC(O)N1CCC(Cc2ccccc2)CC1 (stereo not given) | inactive | inactive | inactive | – | – | – | –
4 | OC1CCCCC1Nc1ccccc1 (stereo not given) | inactive | inactive | inactive | – | – | – | –
5 | CC(=O)OC1CCCCC1Nc1ccccc1 (stereo not given) | inactive | inactive | inactive | – | – | – | –
6 | CC(=O)OC1CCCCC1N1CCN(C)CC1 (stereo not given) | inactive | inactive | inactive | – | – | – | –
7 | CN1CCN(C2CCCCC2O)CC1 (stereo not given) | inactive | – | inactive | – | – | – | –
8 | CC(=O)OC(C)Nc1ccco1 (stereo not given) | inactive | inactive | inactive | – | – | – | –
9 | OC1CCCCC1N1CCOCC1 (stereo not given) | inactive | inactive | inactive | – | – | – | –
10 | CC(O)N1CCCCC1C (stereo not given) | inactive | inactive | inactive | – | – | – | –
11 | CC(=O)OC(C)N1CCC(Cc2ccccc2)CC1 (stereo not given) | inactive | – | inactive | 83.4 | – | – | –
12 | CC(=O)OC1CCCCC1N1CCCCC1 (stereo not given) | inactive | inactive | inactive | – | – | – | –
13 | OC1CCCCC1N1CCCCC1 (stereo not given) | inactive | – | inactive | – | 88.9 | – | –
14 | CC(O)Nc1ccco1 (stereo not given) | – | – | inactive | 81.3 | – | 82 | –
15 | CCN(CC)C(=O)N1CCN(C)CC1 [DIETHYLCARBAMAZINE] | inactive | inactive | – | – | – | – | 90
16 | OC1CCCCC1N1CCC(Cc2ccccc2)CC1 (stereo not given) | inactive | inactive | inactive | – | – | – | –
17 | CC(=O)OC1CCCCC1N1CCC(Cc2ccccc2)CC1 (stereo not given) | inactive | inactive | inactive | – | – | – | –

— ChEMBL document CHEMBL3046850, “In vivo antifilarial activity of some cyclic and acylic alcohols” (2011)
